Structures are written as SMILES. Where two headings read alike, the source gives them in different places.

Broadly, the viability is the share of living cells, or the viability signal relative to a control.

For this data set, the system named is BCC cells. Description: Cell viability by MTT assay after compound and UVA irradiation. Format: cell-based, human. As to conditions: for viability at 4 µM: Homo sapiens, BCC, light or radiation study, read-out: cell viability compared with untreated controls. The protocol: (A) Dose-response curves for compound 6 ftested against BCC cells. Cells were seeded in a 96-well plate at 2500 cells per well and cultivated overnight until cell attachment. 6f-UVA at the indicated concentration was added into the culture media in triplicate and incubated for 4 h before 1 J/cm2 UVA irradiation. Twenty-four hours after irradiation, the MTT reagent was added into each well. The absorbance is directly proportional to the number of living cells. (B) To clarify whether 6-UVA has more cytotoxicity than either UVA irradiation alone or treatment with 6 alone, cells were cultured with or without 4 μM Formula 6f before different dosage of UVA irradiation. *p<0.05, **p<0.01 as compared with the control.
The method for UVA irradiation was described in the previous study (Kao, C. S.; Yu, H. S. J. Invest. Dermatol. 1992, 98, 734). For UVA irradiation, a specific UVA lamp emitting a peak wavelength of 365 nm with intensity of 0.75 mW/cm^2 (Vilber Lourmat, Moune La Vallee, Cedex, France) was used. The cultured cells were pretreated with different agents at 4 μM or pretreated with various concentrations (0-4 μM) of Formula 6 for 4 h before UVA irradiation. The cultured cells were rinsed with phosphate-buffered saline (PBS) and then irradiated with 1 J/cm^2 UVA in PBS to avoid the formation of medium-derived toxic photoproducts induced by UV exposure. The doses of irradiation were measured using a UVX radiometer (UVP, San Gabriel, Calif., USA). Immediately after phototreatment, PBS was removed and media were added to the cells. All the following experiments were performed three times in triplicate.
Cell viability was assessed by the MTT assay, a mitochondrial function assay based on the ability of viable cells to reduce the redox indicator MTT to insoluble formazan crystals by mitochondrial dehydrogenase. Briefly, cells were seeded in a 96-well plate at the cell density of 2500 cells/well. After an overnight incubation, the cells were treated with compounds at 4 μM and incubated for 24 h. The medium was then discarded and replaced with 10 μL of MTT dye. Plates were incubated at 37° C. for 2 h. The resulting formazan crystals were solubilized in 100 μL DMSO, and the optical density was read at 540 nm with a microplate reader (MRX-II, Dynex technology, Chantilly, Va.).
(Tetrazolium assays rely on reduction of a dye to a coloured formazan, in cell work by metabolically active cells.)

With `Nc1ccc(-c2nc3ccc(C(F)(F)F)cc3s2)cc1` [Formula 6f, 2-(4-Aminophenyl)-6-trifluoromethylbenzothiazole], the cell survival result (BCC cells, 4 μM for 4 h, 1 J/cm^2 UVA, 24 h after exposure (FIG. 3A)) is “below 50%”. Also, the “inhibitory effect on cell viability” value (BCC cells, different concentrations for 4 h, 1 J/cm^2 UVA (FIG. 3A)) is “dependent on drug concentration”. Besides, the viability at 4 µM is, setting by setting: (BCC cells, 0.25 J/cm^2 UVA) 71%; (BCC cells, 0.5 J/cm^2 UVA) 65%; (BCC cells, 1 J/cm^2 UVA) 45%. In addition, where the note is “compound alone, without UVA irradiation (FIG. 3B)”, the “cytotoxicity against BCC cells” value is reported as “does not have cytotoxicity”.
